Broadly, the IC50 is the concentration at which inhibition is half-maximal. A lower IC50 goes with higher potency.

The target in test [1] is Fibroblast growth factor receptor 3 (Homo sapiens) (UniProt P22607). Conditions: Compound concentration 20.0 uM, Protein concentration 2.0 uM, Result type QC Liability.
Description: Thermal Shift Assay. Domain: start/stop: P449-E759
Test [2] concerns the target T1, Peripheral plasma membrane protein CASK (Homo sapiens) (UniProt O14936).
T1 sequence (whole entry): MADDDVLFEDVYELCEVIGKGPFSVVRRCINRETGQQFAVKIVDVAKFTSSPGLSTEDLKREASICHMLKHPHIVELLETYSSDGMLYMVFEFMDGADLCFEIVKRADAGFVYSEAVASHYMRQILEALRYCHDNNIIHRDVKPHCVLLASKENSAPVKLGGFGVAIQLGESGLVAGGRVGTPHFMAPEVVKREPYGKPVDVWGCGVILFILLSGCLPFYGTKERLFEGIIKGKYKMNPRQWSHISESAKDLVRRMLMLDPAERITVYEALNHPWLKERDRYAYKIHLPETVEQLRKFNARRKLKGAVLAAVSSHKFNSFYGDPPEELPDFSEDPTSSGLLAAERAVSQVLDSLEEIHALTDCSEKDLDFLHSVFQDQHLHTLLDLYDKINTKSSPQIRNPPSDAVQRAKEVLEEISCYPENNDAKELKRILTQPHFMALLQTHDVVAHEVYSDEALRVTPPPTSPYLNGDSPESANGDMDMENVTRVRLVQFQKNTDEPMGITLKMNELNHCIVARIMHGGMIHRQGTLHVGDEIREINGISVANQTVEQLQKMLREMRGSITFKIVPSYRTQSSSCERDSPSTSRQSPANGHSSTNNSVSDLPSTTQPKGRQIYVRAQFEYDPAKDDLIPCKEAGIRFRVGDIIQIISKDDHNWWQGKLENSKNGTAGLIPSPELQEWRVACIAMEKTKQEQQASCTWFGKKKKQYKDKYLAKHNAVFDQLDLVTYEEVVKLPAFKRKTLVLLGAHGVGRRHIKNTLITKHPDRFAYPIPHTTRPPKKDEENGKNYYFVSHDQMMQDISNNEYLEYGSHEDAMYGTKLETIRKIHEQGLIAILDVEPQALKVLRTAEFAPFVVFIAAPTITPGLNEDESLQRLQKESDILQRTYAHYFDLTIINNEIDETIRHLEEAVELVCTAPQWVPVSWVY
In words: (§1) Cellular target engagement assay with: CASK. Also noted: cell line HEK293T. Conditions: HEK-293T, NanoBRET Ttracer Tracer K5. (In BRET a luciferase serves as donor, and the signal depends on an acceptor being close.)

Test [3] concerns the target T2, Peripheral plasma membrane protein CASK (Homo sapiens, UniProt O14936).
T2 sequence (O14936 whole entry): T1 sequence (whole entry)
The test is described as §1. More on the design: species or system HEK-293T; cell line HEK293T.

Test [4] has as its target T3, Peregrin (Homo sapiens) (UniProt P55201).
T3 sequence (whole entry): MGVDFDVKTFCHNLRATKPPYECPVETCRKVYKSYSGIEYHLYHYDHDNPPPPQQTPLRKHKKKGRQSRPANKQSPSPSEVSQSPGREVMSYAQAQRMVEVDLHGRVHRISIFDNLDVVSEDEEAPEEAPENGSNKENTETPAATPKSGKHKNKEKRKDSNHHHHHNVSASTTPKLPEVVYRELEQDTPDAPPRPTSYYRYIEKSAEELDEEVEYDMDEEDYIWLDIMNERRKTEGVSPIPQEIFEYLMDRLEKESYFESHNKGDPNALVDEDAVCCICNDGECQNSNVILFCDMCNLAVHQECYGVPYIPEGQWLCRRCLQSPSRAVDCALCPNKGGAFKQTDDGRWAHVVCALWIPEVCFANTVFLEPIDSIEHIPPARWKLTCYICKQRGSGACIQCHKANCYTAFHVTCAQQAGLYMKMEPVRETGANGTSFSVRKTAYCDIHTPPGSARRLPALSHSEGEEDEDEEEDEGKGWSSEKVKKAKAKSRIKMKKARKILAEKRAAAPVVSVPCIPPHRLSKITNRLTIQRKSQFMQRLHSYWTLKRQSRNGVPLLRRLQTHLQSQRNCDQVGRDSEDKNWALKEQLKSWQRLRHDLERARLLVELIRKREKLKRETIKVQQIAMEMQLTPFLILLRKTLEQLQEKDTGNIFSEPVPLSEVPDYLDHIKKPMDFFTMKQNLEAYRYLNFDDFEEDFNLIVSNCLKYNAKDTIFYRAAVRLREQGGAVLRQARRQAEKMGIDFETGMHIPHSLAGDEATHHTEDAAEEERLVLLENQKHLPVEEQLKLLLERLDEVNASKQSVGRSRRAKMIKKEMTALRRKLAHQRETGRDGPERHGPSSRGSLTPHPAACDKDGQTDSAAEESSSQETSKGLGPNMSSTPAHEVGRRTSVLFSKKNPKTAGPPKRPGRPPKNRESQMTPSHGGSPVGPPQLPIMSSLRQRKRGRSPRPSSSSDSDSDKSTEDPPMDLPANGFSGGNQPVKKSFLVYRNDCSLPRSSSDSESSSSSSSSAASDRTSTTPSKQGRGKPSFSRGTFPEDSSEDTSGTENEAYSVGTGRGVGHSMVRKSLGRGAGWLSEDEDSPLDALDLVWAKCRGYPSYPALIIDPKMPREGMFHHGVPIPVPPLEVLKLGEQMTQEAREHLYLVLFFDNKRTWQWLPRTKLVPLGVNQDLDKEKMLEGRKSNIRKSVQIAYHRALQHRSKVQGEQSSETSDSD
Conditions: Compound concentration 20.0 uM, Protein concentration 2.0 uM, Result type QC Liability.

Test [5] addresses SRSF protein kinase 2 (Homo sapiens) (UniProt P78362). Conditions: HEK-293T, NanoBRET Ttracer MW375.
Description: Cellular target engagement assay with: SRPK2
Test [6] has as its target SRSF protein kinase 1 (Homo sapiens) (UniProt Q96SB4). The following applies: HEK-293T, NanoBRET Ttracer MW375.
Description: Cellular target engagement assay with: SRPK1
For test [7], the target named is T3, Peregrin (Homo sapiens). Conditions: Compound concentration 20.0 uM, Protein concentration 2.0 uM, Result type QC Liability. This is another data set of the same source.
Test [8] has as its target Epithelial discoidin domain-containing receptor 1 (Homo sapiens) (UniProt Q08345). Kind of test: Cellular target engagement assay with: DDR1. Conditions: HEK-293T, NanoBRET Ttracer Tracer K4. More on the design: cell line HEK293T.
For test [9], the target named is Mitogen-activated protein kinase 14 (Homo sapiens) (UniProt Q16539). In words: Cellular target engagement assay with: MAPK14. More on the design: cell line HEK293T. The following applies: HEK-293T, NanoBRET Ttracer Tracer K10.
Mitogen-activated protein kinase 14 (Homo sapiens), sequence (Q16539 whole entry): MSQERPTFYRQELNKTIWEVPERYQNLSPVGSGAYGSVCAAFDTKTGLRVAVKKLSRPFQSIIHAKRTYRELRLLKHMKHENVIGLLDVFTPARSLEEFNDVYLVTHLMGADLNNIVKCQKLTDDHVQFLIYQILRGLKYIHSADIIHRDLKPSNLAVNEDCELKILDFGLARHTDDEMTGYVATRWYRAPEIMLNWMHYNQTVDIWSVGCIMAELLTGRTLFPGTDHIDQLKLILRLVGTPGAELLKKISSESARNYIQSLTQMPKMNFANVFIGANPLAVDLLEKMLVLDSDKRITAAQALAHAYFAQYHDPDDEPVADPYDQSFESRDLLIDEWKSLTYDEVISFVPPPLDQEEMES
Test [10] concerns the target Mitogen-activated protein kinase 11 (Homo sapiens) (UniProt Q15759). In words: Cellular target engagement assay with: MAPK11. More on the design: cell line HEK293T. Conditions: HEK-293T, NanoBRET Ttracer Tracer K10.
Test [11] addresses T4, Discoidin domain-containing receptor 2 (Homo sapiens) (UniProt Q16832).
T4 sequence (whole entry): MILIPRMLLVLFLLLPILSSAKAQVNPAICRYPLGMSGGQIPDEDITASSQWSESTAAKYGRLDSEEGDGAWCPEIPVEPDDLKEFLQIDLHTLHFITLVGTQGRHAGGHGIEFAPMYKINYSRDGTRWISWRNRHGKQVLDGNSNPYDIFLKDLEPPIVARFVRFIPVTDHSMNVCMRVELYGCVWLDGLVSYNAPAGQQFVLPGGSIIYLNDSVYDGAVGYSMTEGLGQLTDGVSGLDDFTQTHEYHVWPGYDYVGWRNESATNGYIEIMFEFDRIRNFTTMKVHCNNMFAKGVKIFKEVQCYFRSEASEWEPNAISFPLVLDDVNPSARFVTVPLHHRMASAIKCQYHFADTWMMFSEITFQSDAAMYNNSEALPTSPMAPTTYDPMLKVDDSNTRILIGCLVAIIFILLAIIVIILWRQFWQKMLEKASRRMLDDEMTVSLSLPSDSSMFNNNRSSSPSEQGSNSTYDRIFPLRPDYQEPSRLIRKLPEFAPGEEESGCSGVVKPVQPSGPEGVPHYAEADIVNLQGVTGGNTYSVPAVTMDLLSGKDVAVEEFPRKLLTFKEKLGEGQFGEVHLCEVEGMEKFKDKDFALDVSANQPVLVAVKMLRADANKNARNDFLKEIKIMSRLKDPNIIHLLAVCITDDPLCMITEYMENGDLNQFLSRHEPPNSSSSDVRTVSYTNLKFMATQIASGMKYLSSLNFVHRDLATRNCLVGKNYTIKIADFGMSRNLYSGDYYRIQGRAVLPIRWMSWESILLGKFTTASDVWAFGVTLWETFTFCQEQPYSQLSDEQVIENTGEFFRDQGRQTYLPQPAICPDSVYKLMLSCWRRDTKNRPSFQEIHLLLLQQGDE
Kind of test: Cellular target engagement assay with: DDR2. Also noted: cell line HEK293T. Conditions: HEK-293T, NanoBRET Ttracer Tracer K4.

Fibroblast growth factor receptor 3 (Homo sapiens), sequence (P22607 23-806 limits assumed): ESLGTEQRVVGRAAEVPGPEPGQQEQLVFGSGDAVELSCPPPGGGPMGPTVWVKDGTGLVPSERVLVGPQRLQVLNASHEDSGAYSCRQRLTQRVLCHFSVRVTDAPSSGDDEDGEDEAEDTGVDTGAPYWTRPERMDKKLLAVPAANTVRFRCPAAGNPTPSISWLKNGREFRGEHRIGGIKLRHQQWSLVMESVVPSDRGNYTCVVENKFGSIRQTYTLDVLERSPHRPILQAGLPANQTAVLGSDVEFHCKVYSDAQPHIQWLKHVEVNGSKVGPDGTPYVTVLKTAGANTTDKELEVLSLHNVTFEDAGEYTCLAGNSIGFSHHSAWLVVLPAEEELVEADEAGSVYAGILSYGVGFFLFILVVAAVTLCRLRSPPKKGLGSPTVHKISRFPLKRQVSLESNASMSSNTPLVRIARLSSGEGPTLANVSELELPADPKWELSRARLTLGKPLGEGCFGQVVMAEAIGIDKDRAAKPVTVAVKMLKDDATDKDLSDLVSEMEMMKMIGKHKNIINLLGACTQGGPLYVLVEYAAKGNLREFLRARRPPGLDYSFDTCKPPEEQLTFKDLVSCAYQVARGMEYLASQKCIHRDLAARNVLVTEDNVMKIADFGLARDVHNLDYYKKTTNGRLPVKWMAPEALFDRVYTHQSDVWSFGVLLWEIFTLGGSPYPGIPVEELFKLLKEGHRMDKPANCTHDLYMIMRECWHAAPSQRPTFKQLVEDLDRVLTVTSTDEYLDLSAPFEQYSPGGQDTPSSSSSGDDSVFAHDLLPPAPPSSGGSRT
SRSF protein kinase 1 (Homo sapiens), sequence (Q96SB4 whole entry): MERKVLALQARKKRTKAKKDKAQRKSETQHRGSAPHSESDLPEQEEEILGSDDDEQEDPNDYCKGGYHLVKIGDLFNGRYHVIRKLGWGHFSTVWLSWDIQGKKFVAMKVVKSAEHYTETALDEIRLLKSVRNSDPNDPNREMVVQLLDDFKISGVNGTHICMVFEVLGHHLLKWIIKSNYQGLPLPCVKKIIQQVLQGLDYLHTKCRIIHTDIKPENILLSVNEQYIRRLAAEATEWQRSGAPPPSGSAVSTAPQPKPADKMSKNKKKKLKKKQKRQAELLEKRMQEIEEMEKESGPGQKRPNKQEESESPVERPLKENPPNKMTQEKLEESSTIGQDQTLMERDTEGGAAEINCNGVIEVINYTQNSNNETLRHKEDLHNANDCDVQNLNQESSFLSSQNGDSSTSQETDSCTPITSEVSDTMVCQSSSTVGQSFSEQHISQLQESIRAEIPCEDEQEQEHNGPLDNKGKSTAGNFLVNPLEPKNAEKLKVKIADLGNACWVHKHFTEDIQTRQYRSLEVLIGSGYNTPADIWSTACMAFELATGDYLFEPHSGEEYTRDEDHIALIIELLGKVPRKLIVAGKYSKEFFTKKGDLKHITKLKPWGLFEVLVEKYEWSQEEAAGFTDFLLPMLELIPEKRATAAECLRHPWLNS
Epithelial discoidin domain-containing receptor 1 (Homo sapiens), sequence (Q08345 whole entry, the tested form may be a part): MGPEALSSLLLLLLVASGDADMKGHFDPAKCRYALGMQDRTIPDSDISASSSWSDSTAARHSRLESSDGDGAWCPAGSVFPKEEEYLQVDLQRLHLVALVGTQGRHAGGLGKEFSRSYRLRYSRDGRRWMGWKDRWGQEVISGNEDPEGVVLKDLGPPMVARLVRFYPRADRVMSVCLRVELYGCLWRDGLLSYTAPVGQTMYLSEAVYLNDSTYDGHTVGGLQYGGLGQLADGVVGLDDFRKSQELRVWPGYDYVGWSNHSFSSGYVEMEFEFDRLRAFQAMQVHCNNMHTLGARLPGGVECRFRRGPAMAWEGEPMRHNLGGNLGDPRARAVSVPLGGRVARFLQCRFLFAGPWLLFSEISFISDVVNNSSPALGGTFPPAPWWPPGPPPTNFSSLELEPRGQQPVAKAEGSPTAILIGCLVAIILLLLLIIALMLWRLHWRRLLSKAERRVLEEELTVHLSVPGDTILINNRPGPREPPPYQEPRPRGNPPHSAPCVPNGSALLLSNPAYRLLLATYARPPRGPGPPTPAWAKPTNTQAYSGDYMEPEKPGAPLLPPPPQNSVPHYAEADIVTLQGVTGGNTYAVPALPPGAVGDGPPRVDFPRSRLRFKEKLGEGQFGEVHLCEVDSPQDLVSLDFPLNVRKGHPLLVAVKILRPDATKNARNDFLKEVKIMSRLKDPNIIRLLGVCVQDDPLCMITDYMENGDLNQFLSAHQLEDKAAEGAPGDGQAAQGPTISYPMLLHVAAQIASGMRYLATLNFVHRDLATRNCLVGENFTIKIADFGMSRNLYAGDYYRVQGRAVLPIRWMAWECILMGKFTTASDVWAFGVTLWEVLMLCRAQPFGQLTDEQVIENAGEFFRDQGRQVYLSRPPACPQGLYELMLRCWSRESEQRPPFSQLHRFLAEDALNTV
SRSF protein kinase 2 (Homo sapiens), sequence (P78362 whole entry, looked up): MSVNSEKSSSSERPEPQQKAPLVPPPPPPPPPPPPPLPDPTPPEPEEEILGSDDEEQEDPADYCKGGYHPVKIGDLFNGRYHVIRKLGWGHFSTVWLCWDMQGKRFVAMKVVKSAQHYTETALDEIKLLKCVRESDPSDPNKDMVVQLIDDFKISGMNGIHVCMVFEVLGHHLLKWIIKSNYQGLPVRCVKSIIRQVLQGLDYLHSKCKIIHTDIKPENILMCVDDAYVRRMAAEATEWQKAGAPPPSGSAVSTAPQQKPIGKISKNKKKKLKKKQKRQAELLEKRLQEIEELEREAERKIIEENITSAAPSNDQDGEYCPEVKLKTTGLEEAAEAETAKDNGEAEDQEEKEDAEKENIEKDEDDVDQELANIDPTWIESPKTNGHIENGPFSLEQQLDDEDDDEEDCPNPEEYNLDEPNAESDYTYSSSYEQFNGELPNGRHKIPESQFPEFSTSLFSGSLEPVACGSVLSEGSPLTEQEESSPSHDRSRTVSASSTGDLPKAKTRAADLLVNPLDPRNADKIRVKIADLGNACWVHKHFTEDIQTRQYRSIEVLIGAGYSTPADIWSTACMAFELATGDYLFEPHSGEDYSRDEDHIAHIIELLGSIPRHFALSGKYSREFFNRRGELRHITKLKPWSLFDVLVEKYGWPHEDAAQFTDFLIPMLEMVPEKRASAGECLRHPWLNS
Mitogen-activated protein kinase 11 (Homo sapiens), sequence (Q15759 whole entry, the tested form may be a part): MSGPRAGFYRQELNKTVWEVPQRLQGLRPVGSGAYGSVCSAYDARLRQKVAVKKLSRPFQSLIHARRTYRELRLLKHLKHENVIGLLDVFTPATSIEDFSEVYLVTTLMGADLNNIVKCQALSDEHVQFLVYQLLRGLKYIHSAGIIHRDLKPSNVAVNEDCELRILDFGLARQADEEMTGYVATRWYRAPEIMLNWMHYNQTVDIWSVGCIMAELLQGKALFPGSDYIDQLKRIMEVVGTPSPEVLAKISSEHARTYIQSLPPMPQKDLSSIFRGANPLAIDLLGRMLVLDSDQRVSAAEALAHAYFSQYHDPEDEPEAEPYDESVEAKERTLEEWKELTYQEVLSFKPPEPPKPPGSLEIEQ

For the compound `O=C(NCCCN1CCOC1=O)c1cnc(NCc2cc(Br)ccc2Br)nc1NC1CCCC1`, the ΔTm (in [1]; at Peregrin (Homo sapiens) [4]) was 0 c throughout. In test [2], the LogIC50 is -7. In [3], this compound yielded an IC50 of 80 nM.
For `CN(c1ncccc1CNc1ccnc(-c2nc3c(F)c(Cl)ccc3[nH]2)n1)S(C)(=O)=O`, the ΔTm in test [1] is 0.31 c; at Peregrin (Homo sapiens) [7], -1.19 c. Also, the LogIC50 in [5] and in test [6] was -7 in each case.
Consider `CS(=O)(=O)N1CCCC(NC(=O)[C@H](CCC2CCCCC2)NC(=O)c2ccc(CNC(=O)c3cnc4ccccn34)cc2)C1` (some centres undefined), for which the LogIC50 in test [8] is -8; in test [9], -7; in [10] it was -7; in [11] it was -8. In addition, the ΔTm in test [1] is -0.0946 c; at Peregrin (Homo sapiens) [4], -0.163 c.

These data come from ChEMBL document CHEMBL5058541, “EUbOPEN Chemogenomics Library 2 (NanoBRET)” (2022).
